Assay results as given in ChEMBL document CHEMBL1142810, “Discovery of a potent and selective 5-ht5A receptor antagonist by high-throughput chemistry” (Bioorg Med Chem Lett, 2005).
Each block holds one compound with its values, some of them ahead of it.

How the values were obtained:
[1] = biological target: 5-hydroxytryptamine receptor 5A (Homo sapiens, UniProt P47898); test: Binding affinity towards human 5-hydroxytryptamine receptor 5A expressed in CHO cells using the radioligand [3H]LSD; assay type: cell-based
5-hydroxytryptamine receptor 5A, sequence (P47898 whole entry): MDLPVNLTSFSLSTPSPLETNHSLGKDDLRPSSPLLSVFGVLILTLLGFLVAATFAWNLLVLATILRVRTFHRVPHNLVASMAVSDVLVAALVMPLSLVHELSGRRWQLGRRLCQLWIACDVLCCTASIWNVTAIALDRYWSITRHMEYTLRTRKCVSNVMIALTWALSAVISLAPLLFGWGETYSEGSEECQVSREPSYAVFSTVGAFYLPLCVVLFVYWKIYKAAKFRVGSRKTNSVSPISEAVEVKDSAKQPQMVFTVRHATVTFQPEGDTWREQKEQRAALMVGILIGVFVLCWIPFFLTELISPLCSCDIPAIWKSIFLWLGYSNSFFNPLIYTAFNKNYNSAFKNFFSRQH

[2] = Peak blood concentration in guinea pig at a dose of 3 mg/kg upon oral administration; assay type: ADME, organism-based, Cavia porcellus; set-up: dose 3 mg/kg, route oral
[3] = Bioavailability in guinea pig at a dose of 3 mg/kg upon oral administration; assay type: ADME, organism-based, Cavia porcellus; conditions: in vivo
[4] = biological target: Sodium-dependent serotonin transporter (Homo sapiens, UniProt P31645); test: Binding affinity towards human serotonin transporter expressed in LLCPK cells using the radioligand [3H]citalopram; assay type: cell-based
Sodium-dependent serotonin transporter, sequence (P31645 whole entry): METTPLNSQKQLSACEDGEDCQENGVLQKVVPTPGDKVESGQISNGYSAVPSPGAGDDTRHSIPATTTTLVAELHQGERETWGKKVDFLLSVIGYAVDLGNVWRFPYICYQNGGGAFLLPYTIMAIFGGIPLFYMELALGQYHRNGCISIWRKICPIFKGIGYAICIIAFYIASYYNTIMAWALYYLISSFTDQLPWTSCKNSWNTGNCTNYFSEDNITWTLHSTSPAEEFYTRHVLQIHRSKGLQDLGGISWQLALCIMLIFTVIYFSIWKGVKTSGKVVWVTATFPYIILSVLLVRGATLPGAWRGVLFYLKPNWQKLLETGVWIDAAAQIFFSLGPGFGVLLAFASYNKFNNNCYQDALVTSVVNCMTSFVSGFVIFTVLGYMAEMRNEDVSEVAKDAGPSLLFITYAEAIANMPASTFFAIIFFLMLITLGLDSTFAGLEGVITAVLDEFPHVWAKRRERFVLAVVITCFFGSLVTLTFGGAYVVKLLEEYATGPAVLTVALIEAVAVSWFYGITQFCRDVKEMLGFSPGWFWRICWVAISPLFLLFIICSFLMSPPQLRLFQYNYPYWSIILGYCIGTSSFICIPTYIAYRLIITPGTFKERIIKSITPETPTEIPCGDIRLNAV

[5] = Half life in guinea pig at a dose of 1 mg/kg upon intravenous administration; assay type: ADME, organism-based, Cavia porcellus; set-up: dose 1 mg/kg, route intravenous; conditions: in vivo
[6] = Volume of distribution in guinea pig at a dose of 1 mg/kg upon intravenous administration; assay type: ADME, organism-based, Cavia porcellus; set-up: dose 1 mg/kg, route intravenous; conditions: in vivo, read-out: Vdss
[7] = Half life in guinea pig at a dose of 3 mg/kg upon oral administration; assay type: ADME, organism-based, Cavia porcellus; set-up: dose 3 mg/kg, route oral; conditions: in vivo
[8] = Half life in guinea pig at a dose of 3 mg/kg upon subcutaneous administration; assay type: ADME, organism-based, Cavia porcellus; set-up: dose 3 mg/kg, route subcutaneous; conditions: in vivo, sc
[9] = Bioavailability in guinea pig at a dose of 3 mg/kg upon subcutaneous administration; assay type: ADME, organism-based, Cavia porcellus; conditions: in vivo, sc
[10] = Blood clearance in guinea pig at a dose of 1 mg/kg upon intravenous administration; assay type: ADME, organism-based, Cavia porcellus; set-up: dose 1 mg/kg, route intravenous
[11] = Peak blood concentration in guinea pig at a dose of 3 mg/kg upon subcutaneous administration; assay type: ADME, organism-based, Cavia porcellus; set-up: dose 3 mg/kg, route subcutaneous; conditions: sc
[12] = biological target: 5-hydroxytryptamine receptor 1D (Homo sapiens, UniProt P28221); test: Binding affinity towards human 5-hydroxytryptamine receptor 1D expressed in CHO cells using the radioligand [3H]5-HT; assay type: cell-based
5-hydroxytryptamine receptor 1D, sequence (P28221 whole entry): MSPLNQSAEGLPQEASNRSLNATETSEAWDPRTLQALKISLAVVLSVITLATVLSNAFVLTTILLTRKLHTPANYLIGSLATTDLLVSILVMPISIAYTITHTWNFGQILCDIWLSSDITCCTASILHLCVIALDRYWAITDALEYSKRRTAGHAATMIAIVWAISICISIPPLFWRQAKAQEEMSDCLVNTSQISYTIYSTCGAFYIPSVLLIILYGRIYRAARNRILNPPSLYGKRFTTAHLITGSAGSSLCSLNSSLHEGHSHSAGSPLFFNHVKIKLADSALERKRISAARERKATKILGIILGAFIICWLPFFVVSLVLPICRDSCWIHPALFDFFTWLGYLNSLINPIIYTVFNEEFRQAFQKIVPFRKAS

D(3) dopamine receptor = D(3) dopamine receptor (Homo sapiens, UniProt P35462); test: Binding affinity towards human dopamine receptor D3 expressed in CHO cells using the radioligand [125I]iodosulpiride; assay type: cell-based
D(3) dopamine receptor, sequence (P35462 whole entry): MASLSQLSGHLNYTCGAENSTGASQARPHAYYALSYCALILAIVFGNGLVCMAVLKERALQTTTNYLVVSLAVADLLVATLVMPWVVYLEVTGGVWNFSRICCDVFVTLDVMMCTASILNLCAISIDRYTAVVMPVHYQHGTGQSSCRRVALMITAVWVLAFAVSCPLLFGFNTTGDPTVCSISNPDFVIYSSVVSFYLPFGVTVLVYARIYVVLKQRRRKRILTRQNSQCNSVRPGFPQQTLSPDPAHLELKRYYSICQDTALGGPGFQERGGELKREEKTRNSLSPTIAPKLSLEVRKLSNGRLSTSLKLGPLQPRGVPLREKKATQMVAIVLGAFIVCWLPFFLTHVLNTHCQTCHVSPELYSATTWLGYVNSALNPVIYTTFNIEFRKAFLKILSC

[13] = biological target: 5-hydroxytryptamine receptor 1E (Homo sapiens, UniProt P28566); test: Binding affinity towards human 5-hydroxytryptamine receptor 1E expressed in HEK 293 cells using the radioligand [3H]5-HT; assay type: cell-based, HEK293
5-hydroxytryptamine receptor 1E, sequence (P28566 whole entry): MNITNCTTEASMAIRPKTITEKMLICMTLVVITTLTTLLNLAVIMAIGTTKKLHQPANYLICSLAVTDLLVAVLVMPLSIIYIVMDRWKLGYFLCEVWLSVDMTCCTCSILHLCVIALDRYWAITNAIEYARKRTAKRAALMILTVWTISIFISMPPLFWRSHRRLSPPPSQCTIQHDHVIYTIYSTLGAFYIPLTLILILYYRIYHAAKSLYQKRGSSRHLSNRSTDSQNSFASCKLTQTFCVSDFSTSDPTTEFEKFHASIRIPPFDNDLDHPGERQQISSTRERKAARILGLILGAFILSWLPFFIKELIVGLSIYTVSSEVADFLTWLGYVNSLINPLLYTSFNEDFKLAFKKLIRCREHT

[14] = biological target: 5-hydroxytryptamine receptor 7 (Homo sapiens, UniProt P34969); test: Binding affinity towards human 5-hydroxytryptamine receptor 7 expressed in HEK 293 cells using the radioligand [3H]5-CT; assay type: cell-based, HEK293
5-hydroxytryptamine receptor 7, sequence (P34969 whole entry): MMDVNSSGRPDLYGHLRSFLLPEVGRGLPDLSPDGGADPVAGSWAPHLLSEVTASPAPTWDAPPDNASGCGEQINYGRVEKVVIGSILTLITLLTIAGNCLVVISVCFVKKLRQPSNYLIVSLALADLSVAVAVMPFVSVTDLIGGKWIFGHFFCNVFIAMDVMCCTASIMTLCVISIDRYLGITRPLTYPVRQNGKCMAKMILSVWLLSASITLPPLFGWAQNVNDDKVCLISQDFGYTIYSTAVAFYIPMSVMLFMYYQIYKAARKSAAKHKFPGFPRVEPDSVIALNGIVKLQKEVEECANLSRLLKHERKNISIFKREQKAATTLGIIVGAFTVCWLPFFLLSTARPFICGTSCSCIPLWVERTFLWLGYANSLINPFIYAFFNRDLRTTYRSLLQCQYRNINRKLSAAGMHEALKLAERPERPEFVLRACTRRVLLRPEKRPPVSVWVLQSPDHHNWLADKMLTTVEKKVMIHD

D(4) dopamine receptor = biological target: T1, D(4) dopamine receptor (Homo sapiens, UniProt P21917); test: Binding affinity towards human dopamine receptor D4 expressed in CHO cells using the radioligand [125I]iodosulpiride; assay type: cell-based
T1 sequence (P21917 whole entry): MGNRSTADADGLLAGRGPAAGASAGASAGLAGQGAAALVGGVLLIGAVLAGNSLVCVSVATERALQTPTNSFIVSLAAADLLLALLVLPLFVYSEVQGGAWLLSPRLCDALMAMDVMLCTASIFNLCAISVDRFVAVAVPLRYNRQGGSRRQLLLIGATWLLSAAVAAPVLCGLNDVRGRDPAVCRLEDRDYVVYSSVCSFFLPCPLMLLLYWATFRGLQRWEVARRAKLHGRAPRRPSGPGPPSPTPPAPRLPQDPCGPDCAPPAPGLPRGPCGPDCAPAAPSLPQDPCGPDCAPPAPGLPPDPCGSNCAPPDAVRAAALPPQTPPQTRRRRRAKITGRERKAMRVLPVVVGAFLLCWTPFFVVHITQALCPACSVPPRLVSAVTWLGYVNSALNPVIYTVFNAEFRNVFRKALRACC

D(2) dopamine receptor = D(2) dopamine receptor (Homo sapiens, UniProt P14416); test: Binding affinity towards human dopamine receptor D2 expressed in CHO cells using the radioligand [125I]iodosulpiride; assay type: cell-based
D(2) dopamine receptor, sequence (P14416 whole entry): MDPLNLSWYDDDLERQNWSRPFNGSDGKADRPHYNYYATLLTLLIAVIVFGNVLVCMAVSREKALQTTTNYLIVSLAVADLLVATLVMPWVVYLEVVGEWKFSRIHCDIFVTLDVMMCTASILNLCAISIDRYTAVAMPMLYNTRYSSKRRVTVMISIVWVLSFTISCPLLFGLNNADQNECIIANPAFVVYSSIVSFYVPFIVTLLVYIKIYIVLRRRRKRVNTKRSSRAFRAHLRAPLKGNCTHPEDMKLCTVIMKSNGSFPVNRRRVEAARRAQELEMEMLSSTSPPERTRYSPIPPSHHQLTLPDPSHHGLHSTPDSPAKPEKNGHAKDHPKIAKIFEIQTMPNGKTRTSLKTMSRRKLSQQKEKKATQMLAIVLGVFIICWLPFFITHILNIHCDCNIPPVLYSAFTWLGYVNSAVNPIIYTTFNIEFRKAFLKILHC

[15] = biological target: T2, Alpha-1B adrenergic receptor (Homo sapiens, UniProt P35368); test: Binding affinity towards human alpha-1B-adrenergic receptor expressed in CHO cells using the radioligand [3H]prazosin; assay type: cell-based
T2 sequence (P35368 whole entry): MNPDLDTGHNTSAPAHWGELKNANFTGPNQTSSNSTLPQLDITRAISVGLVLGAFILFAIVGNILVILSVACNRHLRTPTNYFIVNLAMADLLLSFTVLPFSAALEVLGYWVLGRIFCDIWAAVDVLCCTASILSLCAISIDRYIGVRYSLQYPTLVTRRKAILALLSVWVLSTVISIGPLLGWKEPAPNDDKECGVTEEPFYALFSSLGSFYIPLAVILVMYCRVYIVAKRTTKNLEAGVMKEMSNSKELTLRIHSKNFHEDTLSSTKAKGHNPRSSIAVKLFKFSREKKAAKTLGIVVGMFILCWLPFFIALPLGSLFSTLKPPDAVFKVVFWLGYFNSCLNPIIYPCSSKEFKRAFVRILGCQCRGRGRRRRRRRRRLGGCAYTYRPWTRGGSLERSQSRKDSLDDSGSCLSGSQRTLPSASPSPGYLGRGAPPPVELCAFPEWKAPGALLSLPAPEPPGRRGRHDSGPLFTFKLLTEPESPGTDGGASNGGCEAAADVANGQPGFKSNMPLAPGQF

[16] = biological target: T3, 5-hydroxytryptamine receptor 2C (Homo sapiens, UniProt P28335); test: Binding affinity towards human 5-hydroxytryptamine receptor 2C expressed in HEK 293 cells using the radioligand [3H]mesulergine; assay type: cell-based, HEK293
T3 sequence (P28335 whole entry): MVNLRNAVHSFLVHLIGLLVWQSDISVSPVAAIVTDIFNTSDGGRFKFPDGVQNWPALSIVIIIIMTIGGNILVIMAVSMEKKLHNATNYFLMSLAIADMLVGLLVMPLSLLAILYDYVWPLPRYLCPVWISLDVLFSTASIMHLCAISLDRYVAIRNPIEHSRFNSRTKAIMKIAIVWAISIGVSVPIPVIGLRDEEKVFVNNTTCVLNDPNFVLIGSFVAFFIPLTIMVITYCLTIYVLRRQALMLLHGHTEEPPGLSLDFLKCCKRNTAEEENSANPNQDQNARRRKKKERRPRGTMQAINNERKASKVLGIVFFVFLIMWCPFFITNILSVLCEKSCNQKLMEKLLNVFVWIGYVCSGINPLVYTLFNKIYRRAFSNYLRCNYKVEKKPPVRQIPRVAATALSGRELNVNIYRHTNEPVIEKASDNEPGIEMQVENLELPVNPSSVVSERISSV

[17] = biological target: T4, 5-hydroxytryptamine receptor 1A (Homo sapiens, UniProt P08908); test: Binding affinity towards human 5-hydroxytryptamine receptor 1A expressed in HEK 293 cells using the radioligand [3H]8-OH-DPAT; assay type: cell-based, HEK293
T4 sequence (P08908 whole entry): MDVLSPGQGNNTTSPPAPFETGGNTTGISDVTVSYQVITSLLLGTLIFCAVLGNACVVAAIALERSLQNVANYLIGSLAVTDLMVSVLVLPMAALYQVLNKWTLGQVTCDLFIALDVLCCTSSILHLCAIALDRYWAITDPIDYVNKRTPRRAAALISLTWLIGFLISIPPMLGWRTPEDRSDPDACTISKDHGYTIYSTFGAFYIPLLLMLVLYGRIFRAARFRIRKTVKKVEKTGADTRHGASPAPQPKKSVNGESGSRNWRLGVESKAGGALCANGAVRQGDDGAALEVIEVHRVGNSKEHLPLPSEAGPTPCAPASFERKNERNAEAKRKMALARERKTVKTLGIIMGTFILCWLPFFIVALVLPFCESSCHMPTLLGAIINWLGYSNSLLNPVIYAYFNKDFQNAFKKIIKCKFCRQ

[18] = biological target: 5-hydroxytryptamine receptor 6 (Homo sapiens, UniProt P50406); test: Binding affinity towards human 5-hydroxytryptamine receptor 6 expressed in HeLa cells using the radioligand [3H]LSD; assay type: cell-based
5-hydroxytryptamine receptor 6, sequence (P50406 whole entry): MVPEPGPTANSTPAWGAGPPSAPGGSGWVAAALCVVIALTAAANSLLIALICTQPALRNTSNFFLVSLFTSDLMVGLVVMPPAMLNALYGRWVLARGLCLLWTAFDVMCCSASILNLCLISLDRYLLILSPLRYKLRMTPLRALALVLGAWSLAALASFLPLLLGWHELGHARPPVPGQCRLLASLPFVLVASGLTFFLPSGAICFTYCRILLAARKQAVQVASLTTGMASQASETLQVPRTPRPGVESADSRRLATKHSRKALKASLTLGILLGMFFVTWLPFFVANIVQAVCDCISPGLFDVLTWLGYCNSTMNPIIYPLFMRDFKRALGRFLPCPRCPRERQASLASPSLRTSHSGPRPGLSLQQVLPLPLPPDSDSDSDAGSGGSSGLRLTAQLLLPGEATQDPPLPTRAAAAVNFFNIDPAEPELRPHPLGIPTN

[19] = biological target: 5-hydroxytryptamine receptor 1B (Homo sapiens, UniProt P28222); test: Binding affinity towards human 5-hydroxytryptamine receptor 1B expressed in CHO cells using the radioligand [3H]5-HT; assay type: cell-based
5-hydroxytryptamine receptor 1B, sequence (P28222 whole entry): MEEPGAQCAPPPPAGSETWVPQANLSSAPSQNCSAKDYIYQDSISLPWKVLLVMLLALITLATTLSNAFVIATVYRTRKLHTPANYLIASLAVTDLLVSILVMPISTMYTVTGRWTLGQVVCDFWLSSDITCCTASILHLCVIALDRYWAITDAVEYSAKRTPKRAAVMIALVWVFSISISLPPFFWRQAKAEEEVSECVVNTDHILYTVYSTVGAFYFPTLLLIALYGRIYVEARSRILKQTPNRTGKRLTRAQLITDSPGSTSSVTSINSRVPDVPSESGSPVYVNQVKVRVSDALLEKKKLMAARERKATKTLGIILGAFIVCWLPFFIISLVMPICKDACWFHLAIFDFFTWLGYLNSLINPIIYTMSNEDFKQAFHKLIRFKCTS

[20] = biological target: 5-hydroxytryptamine receptor 2B (Homo sapiens, UniProt P41595); test: Binding affinity towards human 5-hydroxytryptamine receptor 2B expressed in HEK 293 cells using the radioligand [3H]5-HT; assay type: cell-based, HEK293
5-hydroxytryptamine receptor 2B, sequence (P41595 whole entry): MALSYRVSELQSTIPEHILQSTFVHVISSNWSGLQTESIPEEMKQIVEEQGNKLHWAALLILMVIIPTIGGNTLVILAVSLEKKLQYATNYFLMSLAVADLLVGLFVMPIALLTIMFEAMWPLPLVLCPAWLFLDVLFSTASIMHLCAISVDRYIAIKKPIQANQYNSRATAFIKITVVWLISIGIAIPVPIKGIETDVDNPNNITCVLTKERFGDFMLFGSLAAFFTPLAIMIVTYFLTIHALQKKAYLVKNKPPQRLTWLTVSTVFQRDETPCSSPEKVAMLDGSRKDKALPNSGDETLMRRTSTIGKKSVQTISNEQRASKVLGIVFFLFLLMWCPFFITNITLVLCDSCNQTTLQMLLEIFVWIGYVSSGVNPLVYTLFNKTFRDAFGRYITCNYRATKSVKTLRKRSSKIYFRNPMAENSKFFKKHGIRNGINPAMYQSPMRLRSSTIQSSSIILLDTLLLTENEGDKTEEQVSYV

[21] = biological target: 5-hydroxytryptamine receptor 2A (Homo sapiens, UniProt P28223); test: Binding affinity towards human 5-hydroxytryptamine receptor 2A expressed in HEK 293 cells using the radioligand [3H]ketanserin; assay type: cell-based, HEK293
5-hydroxytryptamine receptor 2A, sequence (P28223 whole entry): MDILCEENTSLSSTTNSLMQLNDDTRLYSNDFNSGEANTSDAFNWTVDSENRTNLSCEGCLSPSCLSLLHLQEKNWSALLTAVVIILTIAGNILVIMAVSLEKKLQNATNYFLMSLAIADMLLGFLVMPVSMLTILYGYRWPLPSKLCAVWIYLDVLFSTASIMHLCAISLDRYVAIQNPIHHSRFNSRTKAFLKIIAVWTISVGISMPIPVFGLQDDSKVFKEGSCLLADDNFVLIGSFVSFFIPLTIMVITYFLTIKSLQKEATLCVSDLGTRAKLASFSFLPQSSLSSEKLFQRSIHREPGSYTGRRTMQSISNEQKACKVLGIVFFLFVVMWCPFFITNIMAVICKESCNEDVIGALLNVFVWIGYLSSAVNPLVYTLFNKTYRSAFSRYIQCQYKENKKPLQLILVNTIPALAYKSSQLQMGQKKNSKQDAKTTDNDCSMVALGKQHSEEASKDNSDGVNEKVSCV

[22] = biological target: T5, 5-hydroxytryptamine receptor 1F (Homo sapiens, UniProt P30939); test: Binding affinity towards human 5-hydroxytryptamine receptor 1F expressed in HEK 293 cells using the radioligand [3H]5-HT; assay type: cell-based, HEK293
T5 sequence (P30939 whole entry): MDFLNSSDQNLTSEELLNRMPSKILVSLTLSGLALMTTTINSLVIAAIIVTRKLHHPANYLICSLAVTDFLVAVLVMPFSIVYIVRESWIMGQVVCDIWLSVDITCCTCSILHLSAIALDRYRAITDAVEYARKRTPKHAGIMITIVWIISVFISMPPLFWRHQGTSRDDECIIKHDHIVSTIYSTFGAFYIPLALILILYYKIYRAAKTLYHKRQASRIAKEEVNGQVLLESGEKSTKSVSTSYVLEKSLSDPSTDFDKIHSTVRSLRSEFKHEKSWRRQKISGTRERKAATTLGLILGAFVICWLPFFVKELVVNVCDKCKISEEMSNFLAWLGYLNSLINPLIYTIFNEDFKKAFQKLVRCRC

SMILES: O=C(CCC1CCCC1)N(Cc1ccc(-c2ccc(CNCCc3ccccc3)cc2)cc1)CC1CCCCN1 (centres undefined)
Ki [1]: 25.1 nM

SMILES: CN(C)CCN(Cc1ccc(-c2ccc(CNCCc3ccccc3)cn2)cc1)C(=O)CCC1CCCC1
Ki [1]: 12.6 nM

SMILES: c1ccc(CCNCc2ccc(-c3cccc(CNC4CCN(Cc5ccccc5)CC4)c3)cc2)cc1
Ki [1]: 200 nM

SMILES: CN(C)CCN(Cc1ccc(-c2ccc(CNCCc3ccccc3)cc2)cc1)C(=O)CCC1CCCC1.Cl.Cl
Cmax [2]: 20 ng/mL
bioavailability [3]: 4%
Ki [4]: 25.1 nM
half-life [5]: 3.5 h
Vd [6]: 6.1 L/kg
half-life [7]: 3.9 h
half-life [8]: 2.2 h
bioavailability [9]: 63%
clearance [10]: 22 mL/min/kg
Cmax [11]: 388 ng/mL

SMILES: CN(C)CCN(Cc1ccc(-c2ccc(CNCCc3ccccc3)cc2)cc1)C(=O)CCC1CCCC1
Ki [12]: 398 nM
Ki (D(3) dopamine receptor): 631 nM
Ki [13]: > 10000 nM
Ki [14]: 3980 nM
Ki (D(4) dopamine receptor): 794 nM
Ki (D(2) dopamine receptor): 1260 nM
Ki [15]: 316 nM
Ki [16]: 398 nM
Ki [17]: 501 nM
Ki [18]: 3980 nM
Ki [1]: 6.31 nM
Ki [19]: 316 nM
Ki [20]: 1000 nM
Ki [21]: 794 nM
Ki [22]: > 10000 nM

SMILES: CN(C)CCN(Cc1ccc(-c2ccc(CNCCOc3ccccc3)cc2)cc1)C(=O)CCC1CCCC1
Ki [1]: 79.4 nM

Other lines, results leading:

Ki [1]: 1000 nM
SMILES: O=C(/C=C/c1ccccc1)N(Cc1ccc(-c2ccc(CNCc3ccc4c(c3)OCO4)cc2)cc1)Cc1cccnc1

Ki [1]: 25.1 nM
SMILES: CN(C)CCN(Cc1ccc(-c2ccc(CNCCc3ccccc3)cc2)nc1)C(=O)/C=C/c1ccccc1

Ki [1]: 501 nM
SMILES: COc1cccc(CCN(Cc2ccc(-c3ccc(CNCCc4ccccc4)cc3)cc2)C(=O)/C=C/c2ccccc2)c1

Ki [12]: 158 nM
Ki (D(3) dopamine receptor): 1000 nM
Ki [13]: > 10000 nM
Ki [14]: 1000 nM
Ki (D(4) dopamine receptor): 1260 nM
Ki (D(2) dopamine receptor): 794 nM
Ki [15]: 200 nM
Ki [16]: 631 nM
Ki [17]: 794 nM
Ki [18]: > 7940 nM
Ki [1]: 25.1 nM
Ki [19]: 631 nM
Ki [20]: 1260 nM
Ki [21]: 398 nM
Ki [22]: > 10000 nM
SMILES: CN(C)CCN(Cc1ccc(-c2ccc(CNCCc3ccccc3)cc2)cc1)C(=O)/C=C/c1ccccc1

Ki [1]: 79.4 nM
SMILES: CN(C)CCN(Cc1ccc(-c2ccc(CNCCc3ccccc3)cc2)cc1)C(=O)C1CC1c1ccccc1 (centres undefined)

Ki [1]: 631 nM
SMILES: CN(C)CCN(Cc1ccc(-c2ccc(CNCCc3ccccc3)cc2)cc1)C(=O)c1ccccc1
